{
  "source": "patent US20040242650A1",
  "about": "“Extended dosing regimen” (priority 2003, published 2004)",
  "assay": "Pharmacokinetic profiles of patients on the extended dosing regimen (plasma, LCMS/MS, day 15)",
  "type": "in vivo",
  "conditions": "for AUC / half-life / Cmax / concentration at 15 day / Tmax: human, plasma, po; for concentration at 15 day: read-out: Cmin",
  "experimental": "A total of 43 patients were enrolled in the study. The tumor types were as follows: colorectal (23), sarcoma (5), mesothelioma (3), salivary gland (2), endometrial (2), unknown (2), hepatoma (1), melanoma (1), renal cell (1), lung (1), ovary (1), and granulosa cell (1). Patients were treated once a day (QD) or twice a day (BID) for 21 days with N-[2-[(4-hydroxyphenyl)amino]-3-pyridyl]-4-methoxybenzenesulfonamide followed by a 7-day period where no drug was received. Doses were escalated by 50 mg/day (25 mg BID). Three patients were initially treated at each dose level. […] If additional patients experienced dose-limiting toxicity, on occasion the dose level was expanded to nine patients to further assess tolerability. Response assessment was performed every two cycles.\nIn evaluating the pharmacokinetic profiles of the patients, plasma samples were collected pre-dose and over 6 hours following dosing on day 15. Plasma concentrations of N-[2-[(4-hydroxyphenyl)amino]-3-pyridyl]-4-methoxybenzenesulfonamide were determined by a validated LCMS/MS assay. Pharmacokinetic parameter estimates were obtained using noncompartmental methods, and included maximum observed concentration (Cmax), time to Cmax (Tmax), minimum observed concentration (Cmin), half-life (t1/2), and area under the plasma concentration-time profile over a dosing interval (AUCτ). To facilitate calculation of day 15 AUCs, pre-dose concentrations at the beginning and end of the dosing interval were assumed to be equal. Results are summarized below (Table 2).",
  "key": {"[1]": {"conditions": "25 mg, 25 mg BID oral, day 15, plasma, N=2"}, "[2]": {"conditions": "25 mg, 25 mg QD oral, day 15, plasma, N=4"}, "[3]": {"conditions": "50 mg, 50 mg BID oral, day 15, plasma, N=2"}, "[4]": {"conditions": "50 mg, 50 mg QD oral, day 15, plasma, N=3"}, "[5]": {"conditions": "75 mg, 75 mg BID oral, day 15, plasma, N=3"}, "[6]": {"conditions": "100 mg, 100 mg BID oral, day 15, plasma, N=3"}, "[7]": {"conditions": "100 mg, 100 mg QD oral, day 15, plasma, N=3"}, "[8]": {"conditions": "200 mg, 200 mg QD oral, day 15, plasma, N=2"}},
  "note": "Where two headings read alike, the source gives them in different places.",
  "data": [
    {"smiles": "COc1ccc(S(=O)(=O)Nc2cccnc2Nc2ccc(O)cc2)cc1", "note": "[N-[2-[(4-hydroxyphenyl)amino]-3-pyridyl]-4-methoxybenzenesulfonamide]", "values": [
      {"measurement": "Cmin", "setting": "150 mg QD oral, day 15, plasma, N=3", "result": "700 ± 400", "unit": "ng/mL"},
      {"measurement": "accumulation of plasma concentrations", "setting": "QD or BID dosing", "result": "accumulated minimally"},
      {"measurement": "variation of Tmax and t1/2 with dose", "setting": "across doses studied", "result": "did not appear to vary with dose"},
      {"measurement": "dose proportionality of plasma concentrations", "setting": "across the range of doses studied", "result": "dose-proportional (linear) pharmacokinetics"},
      {"measurement": "Cmin concentrations, BID vs QD regimens", "setting": "for a given daily dose", "result": "tended to be greater for BID regimens compared to QD regimens"},
      {"measurement": "AUC", "setting": "25 mg, 25 mg BID oral, day 15, N=2, AUC0-12", "result": "9100 ± 400", "unit": "ng·h/mL"},
      {"measurement": "half-life", "setting": "25 mg, 25 mg BID oral, day 15, N=2, harmonic mean and pseudo standard deviation, read-out: t1/2 (converted)", "result": "3.8 ± 1.7", "unit": "h"},
      {"measurement": "Cmax", "setting": "[1]", "result": "2000 ± 600", "unit": "ng/mL"},
      {"measurement": "concentration at 15 day", "setting": "[1]", "result": 300, "unit": "ng/mL"},
      {"measurement": "Tmax", "setting": "25 mg, 25 mg BID oral, day 15, plasma, N=2, read-out: Tmax", "result": "2.3 ± 2.5", "unit": "h"},
      {"measurement": "AUC", "setting": "25 mg, 25 mg QD oral, day 15, N=4, AUC0-24", "result": "9000 ± 2900", "unit": "ng·h/mL"},
      {"measurement": "half-life", "setting": "25 mg, 25 mg QD oral, day 15, N=4, harmonic mean and pseudo standard deviation, read-out: t1/2 (converted)", "result": "6.3 ± 0.2", "unit": "h"},
      {"measurement": "Cmax", "setting": "[2]", "result": "1700 ± 300", "unit": "ng/mL"},
      {"measurement": "concentration at 15 day", "setting": "[2]", "result": 100, "unit": "ng/mL"},
      {"measurement": "Tmax", "setting": "25 mg, 25 mg QD oral, day 15, plasma, N=4, read-out: Tmax", "result": "1.3 ± 0.5", "unit": "h"},
      {"measurement": "AUC", "setting": "50 mg, 50 mg BID oral, day 15, N=2, AUC0-12", "result": "16400 ± 3200", "unit": "ng·h/mL"},
      {"measurement": "half-life", "setting": "50 mg, 50 mg BID oral, day 15, N=2, harmonic mean and pseudo standard deviation, read-out: t1/2 (converted)", "result": "4 ± 0.6", "unit": "h"},
      {"measurement": "Cmax", "setting": "[3]", "result": "5000 ± 900", "unit": "ng/mL"},
      {"measurement": "concentration at 15 day", "setting": "[3]", "result": "400 ± 200", "unit": "ng/mL"},
      {"measurement": "Tmax", "setting": "50 mg, 50 mg BID oral, day 15, plasma, N=2, read-out: Tmax", "result": 0.5, "unit": "h"},
      {"measurement": "AUC", "setting": "50 mg, 50 mg QD oral, day 15, N=3, AUC0-24", "result": "20400 ± 5000", "unit": "ng·h/mL"},
      {"measurement": "half-life", "setting": "50 mg, 50 mg QD oral, day 15, N=3, harmonic mean and pseudo standard deviation, read-out: t1/2 (converted)", "result": "4.6 ± 2.4", "unit": "h"},
      {"measurement": "Cmax", "setting": "[4]", "result": "3500 ± 200", "unit": "ng/mL"},
      {"measurement": "concentration at 15 day", "setting": "[4]", "result": "100 ± 100", "unit": "ng/mL"},
      {"measurement": "Tmax", "setting": "50 mg, 50 mg QD oral, day 15, plasma, N=3, read-out: Tmax", "result": "1.7 ± 0.6", "unit": "h"},
      {"measurement": "AUC", "setting": "75 mg, 75 mg BID oral, day 15, N=3, AUC0-12", "result": "17000 ± 3600", "unit": "ng·h/mL"},
      {"measurement": "half-life", "setting": "75 mg, 75 mg BID oral, day 15, N=3, harmonic mean and pseudo standard deviation, read-out: t1/2 (converted)", "result": "5.3 ± 0.9", "unit": "h"},
      {"measurement": "Cmax", "setting": "[5]", "result": "3700 ± 1200", "unit": "ng/mL"},
      {"measurement": "concentration at 15 day", "setting": "[5]", "result": 600, "unit": "ng/mL"},
      {"measurement": "Tmax", "setting": "75 mg, 75 mg BID oral, day 15, plasma, N=3, read-out: Tmax", "result": "1.5 ± 0.9", "unit": "h"},
      {"measurement": "AUC", "setting": "100 mg, 100 mg BID oral, day 15, N=3, AUC0-12", "result": "24100 ± 10000", "unit": "ng·h/mL"},
      {"measurement": "half-life", "setting": "100 mg, 100 mg BID oral, day 15, N=3, harmonic mean and pseudo standard deviation, read-out: t1/2 (converted)", "result": "6.1 ± 2.3", "unit": "h"},
      {"measurement": "Cmax", "setting": "[6]", "result": "3500 ± 1300", "unit": "ng/mL"},
      {"measurement": "concentration at 15 day", "setting": "[6]", "result": "900 ± 400", "unit": "ng/mL"},
      {"measurement": "Tmax", "setting": "100 mg, 100 mg BID oral, day 15, plasma, N=3, read-out: Tmax", "result": "2.3 ± 1.5", "unit": "h"},
      {"measurement": "AUC", "setting": "100 mg, 100 mg QD oral, day 15, N=3, AUC0-24", "result": "39500 ± 7900", "unit": "ng·h/mL"},
      {"measurement": "half-life", "setting": "100 mg, 100 mg QD oral, day 15, N=3, harmonic mean and pseudo standard deviation, read-out: t1/2 (converted)", "result": "5.8 ± 1.3", "unit": "h"},
      {"measurement": "Cmax", "setting": "[7]", "result": "8400 ± 900", "unit": "ng/mL"},
      {"measurement": "concentration at 15 day", "setting": "[7]", "result": "200 ± 100", "unit": "ng/mL"},
      {"measurement": "Tmax", "setting": "100 mg, 100 mg QD oral, day 15, plasma, N=3, read-out: Tmax", "result": "1.7 ± 0.6", "unit": "h"},
      {"measurement": "AUC", "setting": "150 mg, 150 mg QD oral, day 15, N=3, AUC0-24", "result": "55100 ± 12200", "unit": "ng·h/mL"},
      {"measurement": "half-life", "setting": "150 mg, 150 mg QD oral, day 15, N=3, harmonic mean and pseudo standard deviation, read-out: t1/2 (converted)", "result": "8.5 ± 1.5", "unit": "h"},
      {"measurement": "Cmax", "setting": "150 mg, 150 mg QD oral, day 15, plasma, N=3", "result": "8200 ± 2300", "unit": "ng/mL"},
      {"measurement": "Tmax", "setting": "150 mg, 150 mg QD oral, day 15, plasma, N=3, read-out: Tmax", "result": "1.2 ± 0.8", "unit": "h"},
      {"measurement": "AUC", "setting": "200 mg, 200 mg QD oral, day 15, N=2, AUC0-24", "result": "60200 ± 34200", "unit": "ng·h/mL"},
      {"measurement": "half-life", "setting": "200 mg, 200 mg QD oral, day 15, N=2, harmonic mean and pseudo standard deviation, read-out: t1/2 (converted)", "result": "7 ± 1", "unit": "h"},
      {"measurement": "Cmax", "setting": "[8]", "result": "9100 ± 5900", "unit": "ng/mL"},
      {"measurement": "concentration at 15 day", "setting": "[8]", "result": "500 ± 300", "unit": "ng/mL"},
      {"measurement": "Tmax", "setting": "200 mg, 200 mg QD oral, day 15, plasma, N=2, read-out: Tmax", "result": 2, "unit": "h"},
      {"measurement": "Tmax", "setting": "oral dosing, all regimens, read-out: overall mean Tmax", "result": 1.5, "unit": "h"},
      {"measurement": "half-life", "setting": "oral dosing, all regimens, read-out: overall mean t1/2 (converted)", "result": 6, "unit": "h"},
      {"measurement": "absorption following oral dosing", "setting": "oral dosing, patients", "result": "rapidly absorbed"}
    ]}
  ]
}
